Measurements from patent US5723114A, “Penetration enhancing compositions and methods of their use” (Cellegy Pharmaceuticals Inc., priority 1996, dated 1998).
Structures can show the parent of a compound that is named as a salt. One block for each compound: values may come before it.

Experiments:
[1] = test system: skin barrier (stratum corneum, treated flank of hairless mouse); test: TEWL (water permeability) after oleic acid treatment and application of drug delivery compound; format: in vivo; conditions: for TEWL (T = 4 hours): vehicle 266±22; for water permeability: words
Procedure: (§1) A female hairless mouse, aged 8 weeks, was treated with oleic acid. After oleic acid treatment, epicholesterol, which substitutes for cholesterol, or transvaccenic acid or stearyl amine, both of which substitute for free fatty acid, was applied to the animal.
TEWL (trans-epidermal water loss) was measured before and after treatment at convenient time intervals when the animal was alert. An Evaperimeter (ServoMed) was used.
(§2) First, TEWL of the left (LHS) and right (RHS) dorsal sides was measured. Then, the animal was anesthetized by 0.25 ml chloral hydrate (CH) IP injection. At t=0, an aliquot of 30 μl oleic acid solution (5% in propylene glycol/ethanol 7:3 (v/v)) was applied directly to both sides of the animal (~1.5×3 cm) using a Hamilton syringe. Two hours after oleic acid treatment, the TEWL rates of both sides were measured, and the RHS was treated with 30 μl of epicholesterol alone and with transvaccenic acid or stearylamine (1.5% in propylene glycol/ethanol 7:3 (v/v)). TEWL was measured thereafter every 2 or 3 hours.
(§3) The mice were kept under anesthesia until the harvest of tissue samples and then sacrificed. At time zero, the tested drug delivery compound listed in Tables 2, 3 and 4 below was applied to the whole treated flank of each mouse. After four hours TEWL was measured again and two drug formulations,one containing lidocaine in a vehicle of a mixture of propylene glycol and ethanol and the other containing Leuteinizing Hormone Releasing Hormone (LHRH) in a vehicle of 60% ethanol, 20% propylene glycol and 20% water. Residual formulation was removed from the skin surface with cotton balls three times and the cotton balls were put into vial #1. Five tape-strippings were conducted at the treated skin sites, and each tape was put into an individual vial numbered 2-6. At the same time, blood was drawn and stored under refrigeration. Urine was collected from the mice during the two hour drug application period and placed into vial #8.

[2] = Percutaneous lidocaine delivery (scintillation counting of plasma and body); design: species or system hairless mouse; conditions: mouse, in vivo
Procedure: as §1, §2, §3
After an additional two hours, the treated skin was cut off, the subcutaneous fat was removed, and the whole skin was placed into vial #7 to which 1 ml of tissue solubilizer was added, and the mixture was allowed to digest overnight at 55° C. The corpse was digested in 100 ml of saponification mix at 55° C. overnight.
For analysis, 10 ml of Scintisafe (30% ) Scintillation media (Fisher Scientific, Fairlawn, N.J.) was added to vials 1-6, and 8. The blood samples were centrifuged, and an aliquot of 100-200 μl was placed into vial #9 and 10 ml of Scintisafe (30%) was added. Similar aliquots of the corpse digest were placed into vials #10 and #11. To vials #9, 10, and 11, 100 μl of 30% hydrogen peroxide was added to decolorize the contents for about two hours. Then […] of Scintisafe (30%) and 150 μl of acetic acid were added and the mixture was let stand overnight. All vials were subjected to scintillation counting as described above. The parameters for the vehicle are as follows: TEWL 266±22 (T=4 hours); plasma concentration 0.31±0.03%; total body concentration 13.13±0.83(% dose/ml plasma); N=14.

[3] = test system: skin barrier (flanks of hairless mice); test: TEWL topical studies: barrier recovery after acetone or tape stripping with topical proton-pump inhibitors; format: in vivo; conditions: DCCD-treated skin immersed in an acidic buffer
Procedure: Proton-pump inhibitors: N,N'-dicyclohexylcarbodiimide (DCCD); 1-10 mM); N-ethyl maleimide (NEM; 1 mM); 7-chloro-4-nitrobenz-2-oxa-1,3-diazole (NBD Cl; 1 mM) and bafilomycin A1 (10 μM) were prepared in vehicle (i.e., 70% propylene glycol, 30% ethanol). Flanks of hairless mice were pre-treated for 30 minutes to 1 hour with drug or vehicle alone before breaking the barrier with acetone. TEWL readings were taken at various time points as described above, followed by additional treatments with drug or vehicle. The DCCD-override study included immersion of flanks in HEPES buffer at pH 5.5 or 7.4 after the pre-treatment with either drug or vehicle and after breaking the barrier with either acetone or by tape stripping.
Test results are shown in FIG. 7 (NEM, NBD-chloride, BAF).

[4] = Table 2/Table 3, no hourly application, TRIS 50 mM, HEPES 20 mM

Plasma Conc. (lidocaine) [2]: 0.24 ± 0.05 % dose/ml plasma | Total Body Conc. (lidocaine) [2]: 11.40 ± 1.98% | lidocaine delivery [2]: significantly increased
SMILES: CC(C)CCC[C@@H](C)[C@H]1CC[C@H]2[C@@H]3CC=C4C[C@H](O)CC[C@]4(C)[C@H]3CC[C@]12C [epicholesterol]
TEWL (T = 4 hours) ([1]; Table 4, synthetic lipid analogs in propylene glycol/ethanol): 397 ± 55

SMILES: C(=NC1CCCCC1)=NC1CCCCC1 [DCCD, N,N'-dicyclohexylcarbodiimide]
barrier recovery, override study [3]: normalized (corrected) the rate of barrier recovery

SMILES: NC(CO)(CO)CO [TRIS, Tris(hydroxymethyl) aminomethyl maleate]
TEWL (T = 4 hours) [1, 4]: 583 ± 109 | water permeability ([1]; alone, pH 5.5): significantly increased | lidocaine delivery ([2]; pH 5.5): very significantly (p≤0.001) increased

lidocaine delivery ([2]; pH 5.5): significant increases
SMILES: O=S(=O)(O)CCN1CCN(CCO)CC1 [HEPES, (N-[2-Hydroxyethyl]piperazine-N'-[2-ethanesulfonic acid])]
TEWL (T = 4 hours) ([1]; Table 2/Table 3, hourly application, HEPES 20 mM, listed as HEPES (pH 5.5)): 560 ± 125 | TEWL (T = 4 hours) ([1]; Table 2/Table 3, hourly application, HEPES 20 mM, listed as HEPES (pH 7.4)): 460 ± 24 | TEWL (T = 4 hours) [1, 4]: 360 ± 18 | water permeability ([1]; alone, single application, pH 5.4): approached statistical significance (p=0.05-0.10) | water permeability ([1]; hourly to maintain pH 5.5): significant increases | water permeability ([1]; hourly to maintain pH 7.4): increased water permeability was significant | lidocaine delivery ([2]; pH 5.4): approached statistical significance (p=0.05-0.10) | lidocaine delivery ([2]; pH 7.4): only increased water permeability was significant
